Experimental data: patent US6376497B1, “Antifungal azole derivatives having a fluorinated vinyl group and process for preparing same” (Korea Research Institute of Chemical Technology, priority 1999, dated 2002)
≈ marks a conversion by molar mass, not a printed value.

Experiments:
Experiment in all cases: In vitro antifungal activity, microbroth dilution MIC
Format in all cases: cell-based
[1] = tested on: Aspergillus furnigatus B. 19119; details: A furnigatus B. 19119, RPMI-1640, 35° C., 4 to 48 hours
In short: (§1)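 Broth microdilution adapted from NCCLS M27, in RPMI-1640 with 0.165 M MOPS, pH 7.0. Yeast or mould inoculum at 2×10^3 CFU/ml was mixed 1:1 with DMSO-derived compound solutions (200 to 0.10 μg/ml before mixing) and incubated at 35 °C for 4 to 48 h. MIC was the concentration showing no growth.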

[2] = tested on: Aspergillus niger A. 16404; details: A. niger A. 16404, RPMI-1640, 35° C., 4 to 48 hours
In short: as §1

[3] = tested on: Candida parapsitosis A. 7330; details: C. parapsitosis A. 7330, RPMI-1640, 35° C., 4 to 48 hours
In short: as §1

[4] = tested on: Candida albicans IFO. 1385; details: C. albicans IFO. 1385, RPMI-1640, 35° C., 4 to 48 hours
In short: as §1

[5] = tested on: Cryptococcus neoformans IFM. 40092; details: Cry. neoformans IFM. 40092, RPMI-1640, 35° C., 4 to 48 hours
In short: as §1

[6] = tested on: Candida albicans A. 10231; details: C. albicans A. 10231, RPMI-1640, 35° C., 4 to 48 hours
In short: as §1

[7] = tested on: Candida tropicalis A. 13803; details: C. tropicalis A. 13803, RPMI-1640, 35° C., 4 to 48 hours
In short: as §1

[8] = tested on: Trichophyton mentagrophytes A. 9129; details: T. mentagrophytes A. 9129, RPMI-1640, 35° C., 4 to 48 hours
In short: as §1

Candida albicans C1-2 = details: C. albicans C1-2, RPMI-1640, 35° C., 4 to 48 hours
In short: as §1

[9] = tested on: Cryptococcus neoformans A. 34144; details: Cry. neoformans A. 34144, RPMI-1640, 35° C., 4 to 48 hours
In short: as §1

[10] = tested on: Candida pseudotropicalis K. 11658; details: C. pseudotropicalis K. 11658, RPMI-1640, 35° C., 4 to 48 hours
In short: as §1

[11] = tested on: Cryptococcus neoformans B. 42419; details: Cry. neoformans B. 42419, RPMI-1640, 35° C., 4 to 48 hours
In short: as §1

[12] = tested on: Torulopsis glabrata B. 16205; details: T. glabrata B. 16205, RPMI-1640, 35° C., 4 to 48 hours
In short: as §1

[13] = tested on: Trichophyton mentagrophytes B. 32663; details: T. mentagrophytes B. 32663, RPMI-1640, 35° C., 4 to 48 hours
In short: as §1

Candida krusei K. 11655 = details: C. krusei K. 11655, RPMI-1640, 35° C., 4 to 48 hours
In short: as §1

Compound | Minimal inhibitory concentration (MIC) [1] [µg/mL] | Minimal inhibitory concentration (MIC) [2] [µg/mL] | Minimal inhibitory concentration (MIC) [3] [µg/mL] | Minimal inhibitory concentration (MIC) [4] [µg/mL] | Minimal inhibitory concentration (MIC) [5] | Minimal inhibitory concentration (MIC) [6] [µg/mL] | Minimal inhibitory concentration (MIC) [7] [µg/mL] | Minimal inhibitory concentration (MIC) [8] [µg/mL] | Minimal inhibitory concentration (MIC) (Candida albicans C1-2) [µg/mL] | Minimal inhibitory concentration (MIC) [9] [µg/mL] | Minimal inhibitory concentration (MIC) [10] [µg/mL] | Minimal inhibitory concentration (MIC) [11] [µg/mL] | Minimal inhibitory concentration (MIC) [12] [µg/mL] | Minimal inhibitory concentration (MIC) [13] [µg/mL] | Minimal inhibitory concentration (MIC) (Candida krusei K. 11655) [µg/mL]
Cc1cc(C)cc(C=C(F)OCC2COC(Cn3ccnc3)(c3ccc(Cl)cc3Cl)O2)c1 (stereo not drawn) [Ex. 6] | 6.25 (≈ 13.1 µM) | 6.25 (≈ 13.1 µM) | 12.5 (≈ 26.2 µM) | 0.78 (≈ 1.63 µM) | 1.56 µg/mL (≈ 3.27 µM) | 6.25 (≈ 13.1 µM) | 12.5 (≈ 26.2 µM) | 3.13 (≈ 6.56 µM) | 12.5 (≈ 26.2 µM) | 3.13 (≈ 6.56 µM) | 12.5 (≈ 26.2 µM) | 3.13 (≈ 6.56 µM) | 6.25 (≈ 13.1 µM) | 3.13 (≈ 6.56 µM) | 12.5 (≈ 26.2 µM)
Cc1cc(C)c(C=C(F)OCC2COC(Cn3ccnc3)(c3ccc(Cl)cc3Cl)O2)cc1C (stereo not drawn) [Ex. 7] | 6.25 (≈ 12.7 µM) | 12.5 (≈ 25.4 µM) | 12.5 (≈ 25.4 µM) | 1.56 (≈ 3.17 µM) | 0.78 µg/mL (≈ 1.59 µM) | 12.5 (≈ 25.4 µM) | 25.0 (≈ 50.9 µM) | 6.25 (≈ 12.7 µM) | 12.5 (≈ 25.4 µM) | 1.56 (≈ 3.17 µM) | 12.5 (≈ 25.4 µM) | 1.56 (≈ 3.17 µM) | 6.25 (≈ 12.7 µM) | 1.56 (≈ 3.17 µM) | 12.5 (≈ 25.4 µM)
COc1cccc(C=C(F)OCC2COC(Cn3ccnc3)(c3ccc(Cl)cc3Cl)O2)c1 (stereo not drawn) [Ex. 8] | 6.25 (≈ 13 µM) | 6.25 (≈ 13 µM) | 12.5 (≈ 26.1 µM) | 1.56 (≈ 3.25 µM) | 0.78 µg/mL (≈ 1.63 µM) | 12.5 (≈ 26.1 µM) | 25.0 (≈ 52.2 µM) | 3.13 (≈ 6.53 µM) | 25.0 (≈ 52.2 µM) | 3.13 (≈ 6.53 µM) | 12.5 (≈ 26.1 µM) | 1.56 (≈ 3.25 µM) | 6.25 (≈ 13 µM) | 1.56 (≈ 3.25 µM) | 6.25 (≈ 13 µM)
COc1ccc(C=C(F)OCC2COC(Cn3ccnc3)(c3ccc(Cl)cc3Cl)O2)cc1 (stereo not drawn) [Ex. 9] | 6.25 (≈ 13 µM) | 6.25 (≈ 13 µM) | 12.5 (≈ 26.1 µM) | 1.56 (≈ 3.25 µM) | 0.78 µg/mL (≈ 1.63 µM) | 12.5 (≈ 26.1 µM) | 25.0 (≈ 52.2 µM) | 3.13 (≈ 6.53 µM) | 25.0 (≈ 52.2 µM) | 3.13 (≈ 6.53 µM) | 6.25 (≈ 13 µM) | 1.56 (≈ 3.25 µM) | 6.25 (≈ 13 µM) | 1.56 (≈ 3.25 µM) | 6.25 (≈ 13 µM)
CCOc1ccc(C=C(F)OCC2COC(Cn3ccnc3)(c3ccc(Cl)cc3Cl)O2)cc1 (stereo not drawn) [Ex. 10] | 12.5 (≈ 25.3 µM) | 50.0 (≈ 101 µM) | 12.5 (≈ 25.3 µM) | 1.56 (≈ 3.16 µM) | ≦0.10 μg/ml | 25.0 (≈ 50.7 µM) | 50.0 (≈ 101 µM) | 6.25 (≈ 12.7 µM) | 12.5 (≈ 25.3 µM) | 1.56 (≈ 3.16 µM) | 6.25 (≈ 12.7 µM) | 1.56 (≈ 3.16 µM) | 12.5 (≈ 25.3 µM) | 1.56 (≈ 3.16 µM) | 25.0 (≈ 50.7 µM)
